Consider six compounds from article PMC4346889, “Discovery of Akt Kinase Inhibitors through Structure-Based Virtual Screening and Their Evaluation as Potential Anticancer Agents” (International Journal of Molecular Sciences, 2015).

Series [1] has as its system HEK-293 normal human embryonic kidney cells. As to the kind of experiment: Cytotoxicity evaluation, ATPLite cell viability. The conditions noted are these: HEK293, 48 h, concentration required to inhibit cell growth by 50%, 2 days incubation. The class given is cell-based. As for the experimental part:
(§1) The 26 test compounds (as listed in Figure 4) were further evaluated at 100 µM for their cytotoxicity against HCT-116 human colon cancer cells and HEK-293 normal human embryonic kidney cells. […] Their chemical structures are shown in Figure S1 in the Supplementary Material.
(§2) Compounds were evaluated at 100 µM for their cytotoxicity against HCT-116 human colon cancer cells and HEK-293 normal human embryonic kidney cells. Cells were seeded at a density of 1 × 10^4 cells/well in 96-well plates and allowed to attach overnight. Cells were then treated with test compounds or 1% DMSO (vehicle control) and incubated at 37 °C in an atmosphere of 5% CO2 for 2 days. The ATPLite kit (PerkinElmer, Waltham, MA, USA) was used for detecting the cell viability.

Series [2] deals with HCT-116 human colon cancer cells. The series can be described thus: Cytotoxicity evaluation, ATPLite cell viability. The conditions noted are these: for IC50: Homo sapiens, HCT-116, 48 h, concentration required to inhibit cell growth by 50%, 2 days incubation; for Selectivity index: ratio of IC50 for HEK-293/IC50 for HCT-116. Format: cell-based. Background: ATP-based viability assays read luminescence as a measure of living cells.

Series [3] addresses T1, Akt kinase (Homo sapiens, UniProt P31749).
T1 construct: purchased Enzo Life Sciences EKS-400A
The series can be described thus: Akt kinase inhibition assay (EKS-400A assay kit). Format: biochemical. As for the experimental part: The 48 selected compounds from virtual screening were assessed at 100 µM for their ability to inhibit Akt kinase activity using the EKS-400A assay kit (Enzo Life Sciences, Farmingdale, NY, USA).
Compounds were evaluated at 100 µM for their ability to inhibit Akt kinase activity using the EKS-400A assay kit (Enzo Life Sciences). Test compounds or 1% DMSO (vehicle control) were incubated with the 8 ng pure Akt kinase in Hanks’ Balanced Salt Solution (HBSS) at 37 °C for 30 min.

Series [4] addresses T1, Akt kinase. The conditions noted are these: cited from earlier work.
The subject of series [5] is HCT-116 human colon cancer cells. As to the kind of experiment: Cytotoxicity evaluation, ATPLite cell viability. The class given is cell-based. The conditions noted are these: at 100 µM, compared with reference H-89. As for the experimental part:
as §1, §2

T1 sequence (P31749 whole entry): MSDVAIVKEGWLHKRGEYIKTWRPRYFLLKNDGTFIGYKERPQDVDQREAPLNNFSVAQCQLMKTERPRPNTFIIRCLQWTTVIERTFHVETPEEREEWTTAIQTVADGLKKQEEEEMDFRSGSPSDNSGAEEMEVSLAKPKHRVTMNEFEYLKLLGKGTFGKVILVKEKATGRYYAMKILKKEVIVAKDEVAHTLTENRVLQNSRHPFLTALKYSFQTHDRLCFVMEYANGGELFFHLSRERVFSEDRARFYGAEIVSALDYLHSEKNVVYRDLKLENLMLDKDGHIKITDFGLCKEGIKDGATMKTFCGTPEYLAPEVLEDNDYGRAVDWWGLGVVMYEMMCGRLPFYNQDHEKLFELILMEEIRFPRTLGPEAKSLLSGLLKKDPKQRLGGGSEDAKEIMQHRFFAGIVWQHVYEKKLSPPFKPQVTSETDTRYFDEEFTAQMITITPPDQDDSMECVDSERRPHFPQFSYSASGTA

The term IC50 denotes the concentration at which inhibition is half-maximal. The low end stands for higher potency, the high end for lower potency. On to `O=S(=O)(NCCNC/C=C/c1ccc(Br)cc1)c1cccc2cnccc12` [Compound H-89, H-89, reference compound], for which the results for the IC50 in series [1] and in series [2] were 112 µM and 78.9 µM, respectively.

For the compound `Cc1nn(C)cc1-c1nnc(SCC(=O)Nc2cc(C(F)(F)F)ccc2Cl)n1-c1ccc(Cl)cc1` [Compound a46], the concentration for half-maximal inhibition (IC50) against Akt kinase [3] was found to be 201 µM; in series [1] it was 139 µM; in series [2], 11.1 µM. The Selectivity index in series [2] is given as 12.5.

What is called inhibition is the percentage by which the read-out fell short of the control. Higher therefore signals strong suppression. On Akt kinase [3] (at 100 µM), `Nc1ncnc2nc(SCC(=O)Nc3ccc(Br)cc3)[nH]c12` [Compound a48] gave an inhibition at 100 µM of 75%. Further, the remaining activity at 100 µM at Akt kinase [3] (compound at 100 µM, read-out: Akt kinase residual activity) is less than 60%. Besides, the IC50 in series [1] was determined as 153 µM. For the same compound, in series [2], the IC50 was found to be 9.5 µM and the Selectivity index stood at 16.1.

Consider `CCn1c(-c2nonc2N)nc2c(C#CC(C)(C)O)ncc(OC[C@H]3CCCNC3)c21` [GSK690693], for which, at Akt kinase [4], the “pan-Akt kinase inhibitor activity” value is “low nanomolar activity”.

With `Cc1cccc(Nc2nc3nonc3nc2N/N=C/c2cc3c(cc2Br)OCO3)c1C` [a33], the “cytotoxic activity against HCT-116 compared to H-89” value in series [5] is listed as “more potent or comparable cytotoxic activity to that of H-89”. Further, inhibition in series [1] was half-maximal at 165 µM (IC50). In series [2], inhibition was half-maximal at 109 µM (IC50) and the Selectivity index came out at 1.5.

Regarding `Cc1cccc(-c2nc3cc(/N=C/c4c(C)cc(O)c(C)c4O)ccc3o2)c1` [a44], the “cytotoxic activity against HCT-116 compared to H-89” value in series [5] is on record as “more potent or comparable cytotoxic activity to that of H-89”. The compound further gave a half-maximal inhibitory concentration (IC50) in series [1] of 102 µM. In series [2], the IC50 was determined as 50.6 µM and the Selectivity index was 2.0.
